# pIC50: −log10 of the molar value.
# Molecular target: HPK1 (Homo sapiens (Human), UniProt Q92918)
# Test: HPK1 biochemical enzyme assay (microfluidic mobility shift assay)
# Conditions: 1 mM ATP; 1.5 nM HPK1; 30 min preincubation, 60 min reaction; Caliper EZ Reader; read-out: HPK1 1000UMATP caliper IC50
# Protocol: HPK1 biochemical enzyme assay: HPK1 enzyme inhibition was measured using a microfluidic mobility shift assay. […] Test compounds were titrated in ten point curves (top final assay concentration 3 μM), and preincubated with enzyme/substrate mix for 30 min prior to initiation of the reaction by addition of ATP (1 mM final concentration) and substrate (1 μM final concentration; Carna Biosciences) diluted in assay buffer supplemented by MgCl2 (final assay concentration of 5 mM). Following 60 min incubation at RT, the reaction was terminated by addition of 60 μl/well termination buffer (Carna Biosciences) and signal determination using a Caliper EZ Reader (Perkin Elmer, UK).
# Chain of HPK1 (Q92918 whole entry): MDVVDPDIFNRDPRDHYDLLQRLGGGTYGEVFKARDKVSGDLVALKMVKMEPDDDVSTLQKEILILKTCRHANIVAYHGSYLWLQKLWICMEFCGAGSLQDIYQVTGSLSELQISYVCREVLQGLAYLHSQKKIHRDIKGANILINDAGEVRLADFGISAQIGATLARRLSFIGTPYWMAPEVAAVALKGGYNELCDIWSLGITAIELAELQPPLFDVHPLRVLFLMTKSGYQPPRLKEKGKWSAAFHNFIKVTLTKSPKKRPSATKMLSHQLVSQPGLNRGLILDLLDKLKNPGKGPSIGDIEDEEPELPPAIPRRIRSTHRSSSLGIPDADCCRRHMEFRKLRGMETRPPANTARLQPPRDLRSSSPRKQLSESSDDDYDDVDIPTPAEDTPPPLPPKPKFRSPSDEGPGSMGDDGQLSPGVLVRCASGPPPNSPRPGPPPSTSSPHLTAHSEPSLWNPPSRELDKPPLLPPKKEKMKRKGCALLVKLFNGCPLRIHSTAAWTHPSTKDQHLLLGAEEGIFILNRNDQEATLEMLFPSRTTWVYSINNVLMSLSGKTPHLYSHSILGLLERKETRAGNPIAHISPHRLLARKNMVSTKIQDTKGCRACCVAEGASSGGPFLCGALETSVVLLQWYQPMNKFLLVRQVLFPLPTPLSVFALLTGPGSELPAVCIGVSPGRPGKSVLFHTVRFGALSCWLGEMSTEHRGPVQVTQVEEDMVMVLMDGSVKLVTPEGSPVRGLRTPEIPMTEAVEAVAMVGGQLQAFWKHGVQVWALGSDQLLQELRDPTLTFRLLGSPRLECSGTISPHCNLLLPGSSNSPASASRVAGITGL
smiles,measurement,value
"O=C1NCc2c(-c3cnc4cc(F)ccn34)ccc(Nc3ccc(N4CC5CCC(C4)C5O)cn3)c21 (stereo not shown) [I-405, 4-(7-fluoroimidazo [1,2-a]pyridin-3-yl)-7-((5-(8-hydroxy-3-azabicyclo [3.2.1]octan-3-yl)pyridin-2-yl)amino)isoin-dolin-1-one]",pIC50,> 7.00

# Source: patent US11034694B2, “Substituted isoindolin-1-ones and 2,3-dihydro-1H-pyrrolo[3,4-c]pyridin-1-ones as HPK1 antagonists” (Nimbus Saturn, Inc., priority 2019, dated 2021)
